Measurements published in the NIST ThermoML archive (doi:10.1021/je9000697).

Test: wn = mass fraction of the nth substance listed
Conditions: 101 kPa, Liquid

OCCO [1,2-ethanediol] + O
Conditions | mass density, 298.15 K [kg/m3] | mass density, 303.15 K [kg/m3] | mass density, 308.15 K [kg/m3] | mass density, 318.15 K [kg/m3] | viscosity, 298.15 K [mPa·s] | viscosity, 303.15 K [mPa·s] | viscosity, 308.15 K [mPa·s] | viscosity, 318.15 K [mPa·s]
w1 = 0.1 | 1009.49 | 1007.62 | 1005.57 | 1002.73 | 1.152 | 1.017 | 0.9078 | 0.7381
w1 = 0.2 | 1022.45 | 1020.98 | 1018.5 | 1014.28 | 1.469 | 1.306 | 1.149 | 0.9243
w1 = 0.3 | 1035.7 | 1034.05 | 1031.66 | 1026.73 | 1.903 | 1.657 | 1.462 | 1.164
w1 = 1 | – | 1104.47 | 1100.13 | 1092.15 | 18.64 | 13.86 | 11.66 | 7.453
